The text below walks through data of PMC8474110 (Journal of Medicinal Chemistry, 2021).

Counter-ions that a name gives are not always drawn. Like-named read-outs stand apart in the source and are kept apart here.

The test system of one data set is HREC. To be noted: cited from earlier work.
In the next data set the target is T1, σ2 receptor (Cavia porcellus, UniProt H0V073).
T1 construct: the guinea pig brain membranes (300 μL, 360 μg protein) were incubated for 120 min at room temperature with 3 nM [^3H]-DTG; from tissue; host or cells: guinea pig brain membranes
T1 sequence (H0V073 1-176): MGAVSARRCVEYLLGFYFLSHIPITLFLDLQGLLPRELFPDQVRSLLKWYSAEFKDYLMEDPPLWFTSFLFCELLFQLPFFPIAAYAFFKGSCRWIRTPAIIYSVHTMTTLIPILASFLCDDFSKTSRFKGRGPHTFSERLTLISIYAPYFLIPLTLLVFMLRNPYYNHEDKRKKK
The following applies: guinea pig brain membranes; cited from earlier work.

The next data set relates to human UM 92-1 cells. Put plainly: Crystal violet proliferation assay in human UM 92-1 cells. It counts as cell-based. The following applies: for effect on 92-1 cell proliferation compared to the vehicle control: VPA 2 mM, HP 10 μM, (±)-HP-mII 30 μM (predicted IC50 values); for effect alone on proliferation of human UM 92-1 cells: 2 μM. On the procedure:
Then, actions on cell proliferation were examined by crystal violet staining (Figure 6).
HREC and human 92-1 cell (seeded 4 × 10^3 and grown for 24 h at optimum culture conditions) proliferation was measured using crystal violet staining after treatment in 96-well plates with the indicated concentrations of chemicals for an additional 48 h. Control cells received an equal volume of vehicle (DMSO). At the end of the treatment, each well was washed with phosphate-buffered saline (PBS). Following this, the cells were fixed (in 4% paraformaldehyde) and stained with crystal violet solution (0.5% in 20% methanol for HREC or 1% aqueous solution for 92-1 cells). Subsequently, the plate was washed with water and left to dry. Crystal violet staining was evaluated by measuring the absorbance at 570 nm or 590 nm, after crystal violet extraction with 10% acetic acid (at room temperature for 10 min), with a microplate reader with the plate reader (Synergy 2-BioTek). For quantification, each assay was carried out in triplicate.

The next data set relates to inoperable UM patients. Details: method as in PMID 25315663, PMID 23218699, PMID 21880788. To be noted: at 4 months; cited from earlier work.

By melting point is commonly meant the temperature of the solid-liquid transition. As a reminder, the Ki is the equilibrium dissociation constant of an inhibitor or competing ligand from its target.

`CCCC(CCC)C(=O)O[C@H](CCCN1CCC(O)(c2ccc(Cl)cc2)CC1)c1ccc(F)cc1` (as salt: oxalate) [(+)-1] came in with a melting point of 159 to 164 °C.
`CCCC(CCC)C(=O)O[C@@H](CCCN1CCC(O)(c2ccc(Cl)cc2)CC1)c1ccc(F)cc1` (as salt: oxalate) [(−)-1]: the melting point is 158 to 160 °C.
With `OC(CCCN1CCC(O)(c2ccc(Cl)cc2)CC1)c1ccc(F)cc1` (racemic) [(±)-HP-mII, haloperidol metabolite II], the “pIC50 ± SE, MTT viability test on HREC” value in the data set on HREC (48 h) is recorded as 3.89 ± 0.04; with HREC (72 h), 4.16 ± 0.03. Further, the Ki at σ2 receptor was 2.4 ± 0.7 nM. For the same compound, the “effect on 92-1 cell proliferation compared to the vehicle control” value in the data set on human UM 92-1 cells is given as “significantly inhibited”.
For the compound `O[C@@H](CCCN1CCC(O)(c2ccc(Cl)cc2)CC1)c1ccc(F)cc1` [(−)-4], the Ki at σ2 receptor was 9.8 ± 1.8 nM.
`c1ccc(CCN2CCCCC2)cc1` [AC927, 1-phenethylpiperidine, reference compound]: the “effect alone on proliferation of human UM 92-1 cells” value in the data set on human UM 92-1 cells was “promote”.
With `CC(C)=CCN1CC[C@]2(C)c3cc(O)ccc3C[C@H]1[C@H]2C` [PTZ, (+)-pentazocine, reference compound], in the data set with human UM 92-1 cells, the “effect alone on proliferation of human UM 92-1 cells” value is on record as “promote”.
In the case of `CCCC(CCC)C(=O)O` [VPA, valproic acid], the “pIC50 ± SE, MTT viability test on HREC” value in the data set with HREC (24 h) was 2.91 ± 0.01; with HREC (48 h), 2.84 ± 0.03; in the data set with HREC (72 h), 2.86 ± 0.01. Also, the “effect on 92-1 cell proliferation compared to the vehicle control” value in the data set on human UM 92-1 cells is listed as “significantly inhibited”.
On to “AFL: VEGF-trap aflibercept, a popular drug in ophthalmology”, for which, in the data set with inoperable UM patients, the progression-free survival is recorded as 50%.
